Test systems include 786-0 renal; UACC-257 melanoma; UO-31 renal; EKVX NSCLC; RXF 393 renal; MDA-MB-231 breast; CAKI-1 renal; MOLT-4 leukemia.
Holding throughout (test): NCI tumour cell line growth inhibition, 48 h

Drawing on PubChem BioAssay (NCI), this text covers GI50 and TGI for twelve compounds.

“And” between values parts separate entries of the source, which are not always exact repeats. Equal entries are not always repeated.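 1) Cells in 96-well plates. 2) Compound, 48 h, 5 concentrations. 3) Linear interpolation between surrounding doses. 4) Unreached endpoint = highest concentration. GI50 = concentration required for 50% inhibition of growth. TGI denotes the concentration required for complete inhibition of growth.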 Bounds are passed on as bounds.

As for `Clc1c(Cl)[n+](Cc2ccc3ccccc3c2)cn1Cc1ccc2ccccc2c1`, the GI50 is 1.65 µM in the experiment on 786-0 renal; 1.74 µM in the experiment with UACC-257 melanoma; 1.72 µM in the experiment with UO-31 renal; 1.83 µM with EKVX NSCLC; 1.63 µM in the experiment with RXF 393 renal; 1.42 µM in the experiment on MDA-MB-231 breast. Further, the TGI in the experiment on 786-0 renal amounted to 3.11 µM; with UACC-257 melanoma, 3.51 µM; in the experiment on UO-31 renal, 4.56 µM; in the experiment with EKVX NSCLC it was 4.98 µM; in the experiment on RXF 393 renal, 3.1 µM; with MDA-MB-231 breast, 2.93 µM.
In the case of `C[C@@H](Oc1cc(-n2cnc3ccc(OC4CCN(C)CC4)cc32)sc1C(N)=O)c1ccccc1Cl`, the GI50 with 786-0 renal was 0.0951 µM; in the experiment with UACC-257 melanoma, 0.0249 µM; in the experiment with UO-31 renal it was 1.74 µM; in the experiment on RXF 393 renal it was 0.0112 µM; in the experiment on CAKI-1 renal, 1.08 µM; in the experiment with MDA-MB-231 breast it was 0.0225 µM. The GI50 in the experiment on MOLT-4 leukemia is 0.0123 µM. Besides, the TGI with 786-0 renal came out at 3.48 µM; in the experiment on UACC-257 melanoma it was 5.4 µM; in the experiment on UO-31 renal it was 5.95 µM; in the experiment with RXF 393 renal, 3.53 µM; in the experiment on CAKI-1 renal, 6.08 µM; in the experiment with MDA-MB-231 breast, 0.53 µM. In the experiment on MOLT-4 leukemia, this compound displayed a TGI of 5.19 µM.
Take `CCOC(=O)Cc1c(C)c2cc(C(=O)c3ccccc3)c(O)cc2oc1=O`: the TGI was above 100 µM in the experiment on 786-0 renal; 80.1 µM in the experiment with UACC-257 melanoma; 88.9 µM in the experiment on EKVX NSCLC; above 100 µM in the experiment with RXF 393 renal; above 100 µM in the experiment with CAKI-1 renal; 72 µM in the experiment with MDA-MB-231 breast. The compound further displayed a TGI with MOLT-4 leukemia above 100 µM.
In the case of `COc1ccc(Nc2nc3cc(N)cc(N)c3nc2-c2ccccc2)cc1`, the GI50 with 786-0 renal was 16 µM; in the experiment with UO-31 renal, 16.6 µM; with EKVX NSCLC, 26 µM; in the experiment on RXF 393 renal, 10.9 µM; in the experiment with CAKI-1 renal, 35.2 µM; in the experiment on MDA-MB-231 breast it was 11.6 µM. In addition, the TGI in the experiment with 786-0 renal was 31.2 µM; in the experiment on UACC-257 melanoma, 27.5 µM; with UO-31 renal, 34.2 µM; in the experiment on EKVX NSCLC, above 100 µM; in the experiment on RXF 393 renal it was 24.2 µM; in the experiment on CAKI-1 renal it was above 100 µM. This compound displayed a TGI in the experiment on MDA-MB-231 breast of 25.2 µM.
Take `COc1cc(/C=C/c2cc(/C=C/c3ccc(O)c(OC)c3)n(C(=O)c3ccc(Cl)cc3)n2)ccc1O`: the GI50 in the experiment on 786-0 renal was 2.55 µM; in the experiment with UACC-257 melanoma it was 3.79 µM; with UO-31 renal, 1.39 µM; with CAKI-1 renal it was 2.97 µM; in the experiment with MDA-MB-231 breast, 2.84 µM; in the experiment on MOLT-4 leukemia, 1.64 µM. In addition, the TGI with 786-0 renal was found to be 16.2 µM; in the experiment on UACC-257 melanoma, 13.2 µM; in the experiment with UO-31 renal it was 10.1 µM; in the experiment on CAKI-1 renal it was 15 µM; in the experiment on MDA-MB-231 breast it was 19.6 µM; in the experiment with MOLT-4 leukemia it was 11.9 µM.
In the case of `CC[C@H](C)[C@H](NC(=O)[C@H]1CCCCN1C)C(=O)N(C)[C@H](C[C@@H](OC(C)=O)c1cccc(C(=O)N[C@@H](Cc2ccccc2)C[C@H](C)C(=O)OC)n1)C(C)C`, the GI50 in the experiment on 786-0 renal was 0.00526 µM and 0.00425 µM; in the experiment with EKVX NSCLC it was 0.00838 µM and 0.00863 µM; in the experiment on RXF 393 renal, 0.00316 µM; with MDA-MB-231 breast, 0.00427 µM and 0.00267 µM; with MOLT-4 leukemia it was 0.00811 µM and 0.0111 µM. The TGI was 18.3 µM in the experiment with 786-0 renal; above 25 µM in the experiment with UO-31 renal; above 25 µM in the experiment on EKVX NSCLC; 0.85 µM in the experiment with MDA-MB-231 breast; above 25 µM in the experiment on MOLT-4 leukemia.
`Cc1nc([N+](=O)[O-])cn1-c1nc2ccccn2c1[N+](=O)[O-]`: the TGI is above 100 µM in the experiment with 786-0 renal; above 100 µM with UACC-257 melanoma; above 100 µM in the experiment on UO-31 renal; above 100 µM with EKVX NSCLC; 44.5 µM with RXF 393 renal; above 100 µM in the experiment on CAKI-1 renal. This compound also registered a TGI in the experiment on MDA-MB-231 breast above 100 µM.
As for `Cc1c(C)n(CCCN2CCN(C)CC2)c2ccc(Oc3cccc(C(=O)N4CCN(CCc5ccc(F)cc5)CC4)c3)cc12`, the GI50 was 1.53 µM with 786-0 renal; 1.88 µM in the experiment with UACC-257 melanoma; 1.23 µM in the experiment with UO-31 renal; 1.65 µM in the experiment on EKVX NSCLC; 1.59 µM with RXF 393 renal; 1.77 µM in the experiment with CAKI-1 renal. In the experiment on MDA-MB-231 breast, the GI50 is 1.82 µM. Also, the TGI in the experiment on 786-0 renal was found to be 2.95 µM; with UACC-257 melanoma it was 3.72 µM; in the experiment with UO-31 renal it was 2.52 µM; in the experiment on EKVX NSCLC, 3.12 µM; with RXF 393 renal, 3.06 µM; in the experiment with CAKI-1 renal, 3.46 µM. Also, the TGI in the experiment on MDA-MB-231 breast was 3.43 µM.
Take `O=C(CSc1nc2c(n1Nc1ccccc1)-c1ccccc1SC2)Nc1nc(-c2ccc(Cl)cc2)cs1`: the GI50 was 12.7 µM with 786-0 renal; above 100 µM in the experiment on UACC-257 melanoma; above 100 µM with UO-31 renal; 23.6 µM with EKVX NSCLC; 15.8 µM in the experiment on RXF 393 renal; 33.3 µM in the experiment on MDA-MB-231 breast. The GI50 in the experiment on MOLT-4 leukemia is above 100 µM. For the same compound, the TGI in the experiment on 786-0 renal was 34.8 µM; in the experiment with UACC-257 melanoma it was above 100 µM; in the experiment with UO-31 renal, above 100 µM; with EKVX NSCLC it was above 100 µM; in the experiment with RXF 393 renal it was 43.4 µM; in the experiment with MDA-MB-231 breast, above 100 µM. In the experiment with MOLT-4 leukemia, this compound registered a TGI above 100 µM.
For `CNC(=O)c1c(C)oc2cc(Oc3ncnc4cc(OC)c(OC)cc34)ccc12`, the GI50 in the experiment with 786-0 renal is above 100 µM; in the experiment with UACC-257 melanoma, above 100 µM; in the experiment on EKVX NSCLC, above 100 µM; in the experiment on RXF 393 renal it was 0.235 µM; with CAKI-1 renal, above 100 µM; in the experiment with MDA-MB-231 breast, above 100 µM. Also, the GI50 in the experiment with MOLT-4 leukemia is above 100 µM. Moreover, the TGI with 786-0 renal was above 100 µM; in the experiment on UACC-257 melanoma, above 100 µM; with EKVX NSCLC it was above 100 µM; with RXF 393 renal, 2.63 µM; in the experiment with CAKI-1 renal, above 100 µM; in the experiment on MDA-MB-231 breast it was above 100 µM. In addition, the TGI in the experiment with MOLT-4 leukemia was above 100 µM.
For `O=C(NCCCCN1CCOCC1)c1cc2ccccc2o1`, the GI50 in the experiment on 786-0 renal, in the experiment with UACC-257 melanoma, with UO-31 renal, in the experiment with EKVX NSCLC, in the experiment on RXF 393 renal and with CAKI-1 renal was above 100 µM each time. The GI50 with MDA-MB-231 breast is above 100 µM. Moreover, the TGI in the experiment on 786-0 renal, in the experiment on UACC-257 melanoma, in the experiment with UO-31 renal, in the experiment with EKVX NSCLC, with RXF 393 renal and with CAKI-1 renal was above 100 µM in each case. In the experiment on MDA-MB-231 breast, this compound returned a TGI above 100 µM.
Take `O=C(O)CSc1n[nH]c(=O)[nH]c1=O`: the TGI with 786-0 renal, with UO-31 renal, with EKVX NSCLC, with RXF 393 renal, with CAKI-1 renal and in the experiment with MDA-MB-231 breast was above 100 µM throughout. The TGI in the experiment with MOLT-4 leukemia was above 100 µM.
